Laboratory results reported in patent publication US11066414B2, “Cot modulators and methods of use thereof” (Gilead Sciences, Inc., priority 2015, dated 2021).

biological target: Human Cot (Homo sapiens (Human), UniProt P41279); test: High Throughput Cot Biochemical Assay; conditions: IC50 HTRF, Cot HTRF (TR-FRET KinEASE) biochemical assay, 400 μM ATP
Sequence (P41279 30-397): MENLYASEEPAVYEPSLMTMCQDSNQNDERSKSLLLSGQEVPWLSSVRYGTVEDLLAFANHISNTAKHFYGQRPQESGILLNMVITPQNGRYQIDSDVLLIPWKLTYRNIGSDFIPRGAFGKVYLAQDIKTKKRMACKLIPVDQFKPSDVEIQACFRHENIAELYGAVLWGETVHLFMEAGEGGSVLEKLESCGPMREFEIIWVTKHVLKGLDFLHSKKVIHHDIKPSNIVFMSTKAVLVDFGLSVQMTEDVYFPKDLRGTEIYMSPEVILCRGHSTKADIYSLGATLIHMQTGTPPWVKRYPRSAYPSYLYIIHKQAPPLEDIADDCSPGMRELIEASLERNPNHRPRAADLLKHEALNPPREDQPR

| IC50 | Compound |
| --- | --- |
| 7 nM | C[C@@H](CF)n1cc([C@@H](Nc2cc(Cl)c3ncc(C#N)c(NCC(C)(C)C)c3c2)c2cccc3ncccc23)nn1 [Example 803, 8-chloro-6-(((S)-(1-((S)-1-fluoropropan-2-yl)-1H-1,2,3-triazol-4-yl)(quinolin-5-yl)methyl)amino)-4-(neopentylamino)quinoline-3-carbonitrile] |
| 3 nM | CC(C)(CNc1c(C#N)cnc2c(C#N)cc(N[C@H](c3cn(C4(C(F)F)CC4)nn3)c3ccc(F)c4ncccc34)cc12)C(F)(F)F [Example 815, (S)-6-(((1-{1-(difluoromethyl)-cyclopropyl)-1H-1,2,3-triazol-4-yl)(8-fluoroquinolin-5-yl)methyl)amino)-4-((3,3,3-trifluoro-2,2-dimethylpropyl)amino)quinoline-3,8-dicarbonitrile] |
| 1 nM | CC(C)(CNc1c(C#N)cnc2c(C#N)cc(N[C@H](c3cn(C45CC(C4)C5)nn3)c3ccc(F)c4ncccc34)cc12)C(F)(F)F [Example 816, (S)-6-(((1-(bicyclo[1.1.1]pentan-1-yl)-1H-1,2,3-triazol-4-yl)(8-fluoroquinolin-5-yl)methyl)amino)-4-((3,3,3-trifluoro-2,2-dimethylpropyl)amino)quinoline-3,8-dicarbonitrile] |
| 2 nM | CC(C)(C)CNc1c(C#N)cnc2c(C#N)cc(N[C@H](c3cn(C4(C(F)(F)F)CC4)nn3)c3csc4cnccc34)cc12 [Example 855, (S)-4-(neopentylamino)-6-((thieno[2,3-c]pyridin-3-yl(1-(1-(trifluoro-methyl)cyclopropyl)-1H-1,2,3-triazol-4-yl)methyl)-amino)quinoline-3,8-dicarbonitrile] |
| 2 nM | COc1c([C@@H](Nc2cc(C#N)c3ncc(C#N)c(NCC(C)(C)C)c3c2)c2ccc(F)nc2C)nnn1C1CC1 [Example 859, (S)-6-(((1-cyclopropyl-5-methoxy-1H-1,2,3-triazol-4-yl)(6-fluoro-2-methylpyridin-3-yl)methyl)amino)-4-(neopentylamino)quinoline-3,8-dicarbonitrile] |
| 2 nM | Cc1nc(F)ccc1[C@H](Nc1cc(C#N)c2ncc(C#N)c(NCC(C)(C)C)c2c1)c1cn(C(CF)CF)nn1 [Example 869, (S)-6-(((1-(1,3-difluoropropan-2-yl)-1H-1,2,3-triazol-4-yl)(6-fluoro-2-methylpyridin-3-yl)methyl)amino)-4-(neopentylamino)quinoline-3,8-dicarbonitrile] |
| 5 nM | Cn1ccc2c([C@H](Nc3cc(C#N)c4ncc(C#N)c(NCC(C)(C)C)c4c3)c3cn(C4(C(F)F)CC4)nn3)ccnc21 [Example 873, (S)-6-(((1-(1-(difluoromethyl)cyclopropyl)-1H-1,2,3-triazol-4-yl)(1-methyl-1H-pyrrolo[2,3-b]pyridin-4-yl)methyl)amino)-4-(neopentylamino)quinoline-3,8-dicarbonitrile] |
| 4 nM | Cc1nc(F)ccc1[C@H](Nc1cc(C#N)c2ncc(C#N)c(NCC(C)(C)C)c2c1)c1nnn(C)c1F [Example 906, (S)-6-(((5-fluoro-1-methyl-1H-1,2,3-triazol-4-yl)(6-fluoro-2-methylpyridin-3-yl)methyl)amino)-4-(neopentylamino)quinoline-3,8-dicarbonitrile] |
| 3 nM | Cc1nc(F)ccc1[C@H](Nc1cc(Cl)c2ncc(C#N)c(NCC(C)(C)C)c2c1)c1nnn(C2(C)CC2)c1F [Example 947, (S)-8-chloro-6-(((5-fluoro-1-(1-methylcyclopropyl)-1H-1,2,3-triazol-4-yl)(6-fluoro-2-methyl-pyridin-3-yl)methyl)amino)-4-(neopentylamino)quinoline-3-carbonitrile] |
| 9 nM | Cc1nc(F)ccc1[C@H](Nc1cc(Cl)c2ncc(C#N)c(NCC(C)(C)C)c2c1)c1nnn(C23CC(C2)C3)c1F [Example 951, (S)-6-(((1-(bicyclo[1.1.1]pentan-1-yl)-5-fluoro-1H-1,2,3-triazol-4-yl)(6-fluoro-2-methylpyridin-3-yl)methyl)amino)-8-chloro-4-(neopentylamino)quinoline-3-carbonitrile] |
| 2 nM | Cc1nc(F)ccc1[C@H](Nc1cc(Cl)c2ncc(C#N)c(NCC(C)(C)C(F)(F)F)c2c1)c1nnn(C2CC2)c1F [Example 958, (S)-8-chloro-6-(((1-cyclopropyl-5-fluoro-1H-1,2,3-triazol-4-yl)(6-fluoro-2-methylpyridin-3-yl)methyl)amino)-4-((3,3,3-trifluoro-2,2-dimethylpropyl)amino)quinoline-3-carbonitrile] |

same assay, conditions: IC50 HTRF, Cot HTRF (TR-FRET) biochemical assay

| IC50 | Compound |
| --- | --- |
| 5 nM | Cn1c(=O)ccc2c([C@H](Nc3cc(Cl)c4ncc(C#N)c(NCC(C)(C)C)c4c3)c3cn(C45CC(C4)C5)nn3)cccc21 [Example 786, (S)-6-(((1-(bicyclo[1.1.1]pentan-1-yl)-1H-1,2,3-triazol-4-yl)(1-methyl-2-oxo-1,2-dihydroquinolin-5-yl)methyl)amino)-8-chloro-4-(neopentylamino)quinoline-3-carbonitrile] |
| 3 nM | CC1(n2cc([C@@H](Nc3cc(Cl)c4ncc(C#N)c(NCC(C)(C)C(F)(F)F)c4c3)c3cccc4ncccc34)nn2)CC1 [Example 797, (S)-8-chloro-6-(((1-(1-methylcyclopropyl)-1H-1,2,3-triazol-4-yl)(quinolin-5-yl)methyl)amino)-4-((3,3,3-trifluoro-2,2-dimethylpropyl)amino)quinoline-3-carbonitrile] |

The next lines start with the compound.

| Compound | IC50 |
| --- | --- |
| CC(C)n1cc([C@@H](Nc2cc(Cl)c3ncc(C#N)c(Nc4ccc(F)c(Cl)c4)c3c2)c2ccc3c(c2)CNCC3)nn1 [Example 50, (S)-8-chloro-4-((3-chloro-4-fluorophenyl)amino)-6-(((1-isopropyl-1H-1,2,3-triazol-4-yl)(1,2,3,4-tetrahydroisoquinolin-7-yl)methyl)amino)quinoline-3-carbonitrile] | 70 nM |
| CC(C)(C)N1CCC(n2cc([C@@H](Nc3cc(Cl)c4ncc(C#N)c(Nc5ccc(F)c(Cl)c5)c4c3)c3ccc4c(c3)NCC4)nn2)CC1 [Example 51, (S)-6-(((1-(1-(tert-butyl)piperidin-4-yl)-1H-1,2,3-triazol-4-yl)(indolin-6-yl)methyl)amino)-8-chloro-4-((3-chloro-4-fluorophenyl)amino)quinoline-3-carbonitrile] | 55 nM |
| CCN1Cc2ccc([C@H](Nc3cc(Cl)c4ncc(C#N)c(Nc5ccc(F)c(Cl)c5)c4c3)c3c[nH]nn3)cc2C1 [Example 53, (S)-8-chloro-4-((3-chloro-4-fluorophenyl)amino)-6-(((2-ethylisoindolin-5-yl)(1H-1,2,3-triazol-4-yl)methyl)-amino)quinoline-3-carbonitrile] | 81 nM |
| CCN1Cc2cccc([C@H](Nc3cc(Cl)c4ncc(C#N)c(Nc5ccc(F)c(Cl)c5)c4c3)c3c[nH]nn3)c2C1 [Example 54, (S)-8-chloro-4-((3-chloro-4-fluorophenyl)amino)-6-(((2-ethylisoindolin-4-yl)(1H-1,2,3-triazol-4-yl)methyl)amino)quinoline-3-carbonitrile] | 11 nM |
| CC(C)(C)CNc1c(C#N)cnc2c(Cl)cc(N[C@H](c3cn(C4(C(F)F)CC4)nn3)c3ccc(F)c4ncccc34)cc12 [Example 653, (S)-8-chloro-6-(((1-(1-(difluoromethyl)cyclopropyl)-1H-1,2,3-triazol-4-yl)(8-fluoroquinolin-5-yl)methyl)amino)-4-(neopentylamino)quinoline-3-carbonitrile] | 4 nM |
| Cc1nc(F)ccc1[C@H](Nc1cc(Cl)c2ncc(C#N)c(NCC(C)(C)C)c2c1)c1nnn(C2CC2)c1C#N [Example 686, (S)-8-chloro-6-(((5-cyano-1-cyclopropyl-1H-1,2,3-triazol-4-yl)(6-fluoro-2-methylpyridin-3-yl)methyl)amino)-4-(neopentylamino)quinoline-3-carbonitrile] | 4 nM |
| Cn1ccc2c([C@H](Nc3cc(Cl)c4ncc(C#N)c(NCC(C)(C)C(F)(F)F)c4c3)c3cn(C4(C5CC5)CC4)nn3)cccc2c1=O [Example 783, (S)-6-(((1-([1,1′-bi(cyclopropan)]-1-yl)-1H-1,2,3-triazol-4-yl)(2-methyl-1-oxo-1,2-dihydroisoquinolin-5-yl)methyl)amino)-8-chloro-4-((3,3,3-trifluoro-2,2-dimethylpropyl)amino)quinoline-3-carbonitrile] | 2 nM |
| Cn1ccc2c([C@H](Nc3cc(Cl)c4ncc(C#N)c(NCC(C)(C)C(F)(F)F)c4c3)c3cn(C45CC(C4)C5)nn3)cccc2c1=O [Example 785, (S)-6-(((1-(bicyclo[1.1.1]pentan-1-yl)-1H-1,2,3-triazol-4-yl)(2-methyl-1-oxo-1,2-dihydroisoquinolin-5-yl)methyl)amino)-8-chloro-4-((3,3,3-trifluoro-2,2-dimethylpropyl)amino)quinoline-3-carbonitrile] | 2 nM |

same assay, conditions: read-out: IC50 HTRF; Cot HTRF (TR-FRET KinEASE) biochemical assay, 400 μM ATP

| Compound | IC50 |
| --- | --- |
| 6-(((S)-(1-((1R,2R)-2- (difluoromethyl)cyclopropyl)- 1H-1,2,3-triazol-4-yl)(6-fluoro- 2-methylpyridin- 3-yl)methyl)amino)-4- [Example 834] | 5 nM |
| Cc1nc(F)ccc1[C@H](Nc1cc(C#N)c2ncc(C#N)c(NCC(C)(C)C)c2c1)c1nnn(C2(C3CC3)CC2)c1F [Example 865] | 4 nM |

same assay, conditions: read-out: IC50 HTRF; Cot HTRF (TR-FRET) biochemical assay

| IC50 | Compound |
| --- | --- |
| 2 nM | CC(C)(C)CNc1c(C#N)cnc2c(C#N)cc(N[C@H](c3cn(C4(C5CC5)CC4)nn3)c3cccc4ncccc34)cc12 [Example 696] |
| 10 nM | Cc1ncsc1[C@H](Nc1cc(Cl)c2ncc(C#N)c(NCC(C)(C)C)c2c1)c1cn(C2(C(F)(F)F)CC2)nn1 [Example 701, (R)-8-chloro-6-(((4-methylthiazol-5-yl)(1-(1-(trifluoromethyl)cyclopropyl)-1H-1,2,3-triazol-4-yl)methyl)airiino)-4-(neopentylamino)quinoline-3-carbonitrile] |

test system: TNFα; test: Cot Monocyte TNFα Cell Based Assay; conditions: Homo sapiens, Monocyte, read-out: EC50 TNF, LPS-stimulated human monocytes, TNFα

| EC50 | Compound |
| --- | --- |
| 3530 nM | CC(C)n1cc([C@@H](Nc2cc(Cl)c3ncc(C#N)c(Nc4ccc(F)c(Cl)c4)c3c2)c2ccc3c(c2)CNCC3)nn1 [Example 50, (S)-8-chloro-4-((3-chloro-4-fluorophenyl)amino)-6-(((1-isopropyl-1H-1,2,3-triazol-4-yl)(1,2,3,4-tetrahydroisoquinolin-7-yl)methyl)amino)quinoline-3-carbonitrile] |
| 1560 nM | CC(C)(C)N1CCC(n2cc([C@@H](Nc3cc(Cl)c4ncc(C#N)c(Nc5ccc(F)c(Cl)c5)c4c3)c3ccc4c(c3)NCC4)nn2)CC1 [Example 51, (S)-6-(((1-(1-(tert-butyl)piperidin-4-yl)-1H-1,2,3-triazol-4-yl)(indolin-6-yl)methyl)amino)-8-chloro-4-((3-chloro-4-fluorophenyl)amino)quinoline-3-carbonitrile] |
| 4020 nM | CCN1Cc2ccc([C@H](Nc3cc(Cl)c4ncc(C#N)c(Nc5ccc(F)c(Cl)c5)c4c3)c3c[nH]nn3)cc2C1 [Example 53, (S)-8-chloro-4-((3-chloro-4-fluorophenyl)amino)-6-(((2-ethylisoindolin-5-yl)(1H-1,2,3-triazol-4-yl)methyl)-amino)quinoline-3-carbonitrile] |
| 652 nM | CCN1Cc2cccc([C@H](Nc3cc(Cl)c4ncc(C#N)c(Nc5ccc(F)c(Cl)c5)c4c3)c3c[nH]nn3)c2C1 [Example 54, (S)-8-chloro-4-((3-chloro-4-fluorophenyl)amino)-6-(((2-ethylisoindolin-4-yl)(1H-1,2,3-triazol-4-yl)methyl)amino)quinoline-3-carbonitrile] |

same assay, conditions: read-out: EC50 TNF; LPS-stimulated human monocytes, TNFα TR-FRET

| Compound | EC50 |
| --- | --- |
| 6-(((S)-(1-((1R,2R)-2- (difluoromethyl)cyclopropyl)- 1H-1,2,3-triazol-4-yl)(6-fluoro- 2-methylpyridin- 3-yl)methyl)amino)-4- [Example 834] | 68 nM |
